Where “and” joins values, the source holds several entries; their conditions need not be identical. Equal values may be shown once.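 Method: 48-hour compound exposure of cells in 96-well plates, five concentrations, linear interpolation of endpoints. GI50 = concentration required for 50% inhibition of growth. TGI denotes the concentration required for complete inhibition of growth.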 *1 amine or outer side, *2 acyl side, *3 side chain or, on linkers, in order; H or OH if unused. Where a SMILES comes first, the peptide text is derived from it. Bridges are numbered along the chain shown (N, C = ends). Roman numbers before positions name the chains, in order. X23 = CCCCCCCCCCCCCCC(=O)NC(CCCCN[*:2])C(=O)CN1CCCC1C(=O)[*:1] Bounds are passed on as bounds.

What all share (assay): growth of human tumour cells (NCI), 48 h
For experiment [1], the system named is RXF 393 renal.
Experiment [2] relates to MALME-3M melanoma.
The test system of experiment [3] is SNB-19 CNS.
The test system of experiment [4] is SF-295 CNS.
The test system of experiment [5] is LOX IMVI melanoma.
Experiment [6] has as its system SF-268 CNS.
For experiment [7], the system named is NCI-H226 lung.
Experiment [8] relates to HOP-62 NSCLC.
In experiment [9] the test system is KM12 colon.
Experiment [10] deals with MOLT-4 leukemia.
Experiment [11] relates to PC-3 prostate.

`O=C1NC2(NC(=O)C1=O)Nc1ccccc1S2`: the TGI was above 100 µM in [1]; above 100 µM in experiment [2]; above 100 µM in experiment [3]; above 100 µM in [4]; 37.8 µM in experiment [5]; above 76.3 µM in experiment [6]. For the same compound, the TGI in experiment [7] was above 100 µM; in experiment [8], above 100 µM; in experiment [9] it was above 100 µM; in experiment [10], above 92.5 µM.

For `COC[C@@H]1Cc2cc(OC)c3c(c2[C@H](c2ccc(OC)c(OC)c2)[C@H]1COC)OCO3`, the TGI in experiment [1], in experiment [2], in experiment [3], in experiment [4], in [5] and in experiment [6] was above 100 µM in each case. Moreover, the TGI in [9] and in experiment [10] was above 100 µM each time.

With `CC(C)(C)C(=O)CC(=O)C(F)(F)C(F)(F)C(F)(F)F.CC(C)(C)C(=O)CC(=O)C(F)(F)C(F)(F)C(F)(F)F.CC(C)(C)C(=O)CC(=O)C(F)(F)C(F)(F)C(F)(F)F.[Er]`, the TGI in experiment [2], in experiment [3], in experiment [4], in [5], in experiment [6] and in experiment [7] was above 100 µM in each case. The TGI in [8], in [9] and in experiment [11] was above 100 µM in each case.

For the compound `CC(C)(C)OC(=O)N1CCCC1C(=O)NCCNc1ccc(NCCNC(=O)C2CCCN2C(=O)OC(C)(C)C)c2c1C(=O)c1ccccc1C2=O` (stereo not drawn), the TGI was 33 µM in [2]; 32 µM in [4]; 26.3 µM in experiment [5]; above 100 µM in [6]; 46.6 µM in experiment [7]; 33.2 µM in experiment [8]. Moreover, the values for the TGI in [9], in experiment [10] and in experiment [11] were 41.7 µM, above 100 µM and 26.4 µM, respectively.

As for `CN(CCNC(=O)c1cn(C)c2c1ccc1cc(Cl)ccc12)CCNC(=O)c1cn(C)c2c1ccc1cc(Cl)ccc12`, the TGI in [2] worked out at 4.85 µM; in experiment [5], 34 µM; in [6] it was 3.51 µM; in [7] it was 77.8 µM; in [9] it was 3.03 µM; in [10], 11.3 µM. The TGI in experiment [11] was 11.5 µM.

For `CCCCCCCCCCCCCCC(=O)NC(CCCCNC(=O)C1CCCN1C(=O)C(CCCCN)NC(=O)C(CCCCN)NC(=O)C(CCCCN)NC(=O)C(CCCNC(=N)N)NC(=O)C(CCCCN)NC(=O)C(N)C(C)C)C(=O)CN1CCCC1C(=O)NCC(=O)NC(Cc1ccccc1)C(=O)N1CCCC1C(=O)NC(CO)C(=O)NC(Cc1ccc(O)cc1)C(=O)NC(CCCCN)C(=O)NC(CC(C)C)C(=O)NC(CCCNC(=N)N)C(=O)N1CCCC1C(=O)NCC(N)=O` (stereo not drawn) (I: GFPSYKLRPG-NH2 / II: H-VKRKKKP; linker I:N-II:C via X23; configuration not given here), the GI50 is 20.7 µM in [1]; 31.4 µM in [3]; 18.1 µM in [4]; 14.6 µM in experiment [6]; 23.7 µM in experiment [7]; 27.8 µM in experiment [8]. Also, the GI50 in [9] was 1.89 µM; in experiment [10], 18.7 µM. Also, the TGI came out at 51.1 µM in experiment [1]; 76.6 µM in experiment [3]; 59.3 µM in [4]; 40.8 µM in experiment [6]; 49.7 µM in [7]; 69.5 µM in experiment [8]. Besides, the figures for the TGI in experiment [9] and in [10] were 3.85 µM and 44 µM, respectively.

Take `O=[P+](O)c1cccs1`: the TGI in experiment [1], in [3], in experiment [4], in [5], in experiment [6] and in experiment [10] was above 100 µM each time.

As for `CC(=O)C1=C(C)N(c2ccc(C)cc2)C2(O)C=CC(=O)C3=C(O)c4ccccc4C(=O)C312` (stereo not drawn), the TGI is above 100 µM in experiment [1]; 5.07 µM in [2]; above 100 µM in experiment [3]; 43.3 µM in experiment [4]; above 100 µM in [5]; 62.4 µM in experiment [6]. Besides, the TGI in experiment [7] was 64.4 µM; in [8], above 100 µM; in experiment [9] it was 55.1 µM; in experiment [10], above 100 µM; in [11], 41.5 µM.

For the compound `CCOC(=O)c1c(SC)nc(-c2ccc(Cl)cc2)sc1=N`, the TGI was above 100 µM in experiment [1]; 49 µM in experiment [2]; above 100 µM in experiment [3]; above 100 µM in experiment [4]; above 100 µM in [5]; above 100 µM in experiment [6]. Moreover, the TGI in [7] is 80.4 µM; in [8], 95.7 µM; in [9], above 100 µM; in experiment [10], 94 µM; in experiment [11], 61.9 µM.

With `O=[N+]([O-])c1ccc(/C=N/n2c(CCc3n[nH]c(=S)n3/N=C/c3ccc([N+](=O)[O-])o3)n[nH]c2=S)o1`, the TGI in [1] is 32.1 µM; in experiment [4], above 100 µM; in experiment [5], 50.6 µM; in experiment [6], 50.7 µM; in [7], above 100 µM; in experiment [8], 69.8 µM. For the same compound, the TGI in [9] is 64.4 µM; in experiment [10] it was 63.9 µM; in [11] it was above 100 µM.

On to `CC1C(O)[C@@]2(OC[C@@]34C(=O)CC5(O)[C@H](CCC6Cc7nc8c(nc7C[C@]65C)CC5CC[C@@H]6C7=C[C@H]9O[C@@]%10(O[C@@](C)(CO)C[C@@H]%10O)C(C)[C@@]9(O)[C@]7(C)[C@@H](O)CC6[C@]5(C)C8)C3=CC[C@H]4C2C)OC1(C)C` (stereo partly drawn), for which the TGI was below 0.000355 µM in [1]; 0.0275 µM in experiment [2]; 0.206 µM in experiment [3]; below 0.000355 µM in experiment [4]; 0.864 µM in experiment [5]; 0.37 µM in experiment [6]. Besides, the TGI in [7] is above 3.55 µM; in experiment [8] it was 0.0015 µM; in [9] it was above 3.55 µM; in experiment [10], below 0.000355 µM.

Consider `O=C1/C(=C/c2ccc3c(c2)OCO3)Sc2scc(-c3ccc(O)c(O)c3)[n+]21`, for which the TGI in [3] was 36.2 µM; in [4], 25.5 µM; in [6] it was 97.2 µM; in experiment [7], above 100 µM; in [8] it was 41.6 µM; in experiment [9], 13.1 µM. The figures for the TGI in [10] and in [11] were above 20.1 µM and 16.2 µM, respectively.

As to `O=C1CSc2sc(=S)sc2S1`, the TGI in experiment [1], in experiment [2], in experiment [3], in experiment [4], in [5] and in [6] was above 100 µM throughout. Also, the TGI in [7], in [8], in experiment [9] and in experiment [10] was above 100 µM each time.

With `CCc1cccc(C(C)C)c1NC1=C([n+]2ccc(C)cc2)C(=O)c2ccccc2C1=O`, the TGI in [1] was 4.28 µM; in experiment [2], 6.91 µM; in experiment [3], above 100 µM; in [4] it was 18.1 µM; in [5], 3.39 µM; in experiment [6], 5.8 µM. Further, the TGI in experiment [7] was 8.76 µM; in experiment [8], 9.62 µM; in experiment [9] it was above 43.4 µM; in experiment [10], 9.43 µM; in experiment [11] it was 8.91 µM.

For the compound `NS(=O)(=O)c1ccc(N=Nc2ccc(O)c(O)c2)cc1`, the TGI in [1] is 34.8 µM; in [2], 54.9 µM; in experiment [3] it was 84 µM; in [4], above 100 µM; in experiment [5], 36 µM; in experiment [6], 50.2 µM. The TGI in experiment [7] is 40.8 µM; in [8] it was 56.3 µM; in experiment [9], 32.5 µM; in [10], above 100 µM; in [11], above 100 µM.

Turning to `O=NN(CCCl)C(=O)Nc1ccc(Cl)c(Cl)c1`, the TGI in experiment [1], in experiment [2], in [3], in experiment [4], in experiment [5] and in [6] was above 100 µM each time. Further, the TGI in experiment [7], in [8], in [9] and in [10] was above 100 µM in each case.

In the case of `OCCSCc1cc(Cl)cc(Cl)c1O`, the TGI in experiment [1], in experiment [2], in experiment [3], in experiment [4], in experiment [5] and in experiment [6] was above 100 µM in each case. For the same compound, the TGI in [7], in [8], in experiment [9], in experiment [10] and in experiment [11] was above 100 µM in each case.

For `Nc1nccc2c1ncn2C1C=C(CO)C(O)C1O` (stereo not drawn), the GI50 is 851 µM in experiment [1]; above 1000 µM in experiment [3]; 335 µM in [5]; above 1000 µM in [7]; 0.408 µM in experiment [8]; 0.755 µM in [9]. The GI50 in experiment [10] was 0.768 µM. Besides, the TGI is above 1000 µM in [1]; above 1000 µM in [3]; above 1000 µM in [5]; above 1000 µM in [7]; 89.9 µM in experiment [8]; above 1000 µM in [9]. Further, the TGI in experiment [10] is above 1000 µM.

For the compound `COc1cc(CCC(=O)O)c2cc3ccccc3cc2c1O`, the TGI was found to be 32.3 µM in experiment [2]; 60.5 µM in experiment [3]; 37.6 µM in experiment [4]; 53.5 µM in experiment [5]; 38.1 µM in experiment [6]; 78 µM in experiment [7]. Also, the TGI in [8] stood at 32.7 µM; in [9], 44.1 µM; in experiment [10], 21.9 µM; in [11], 47.6 µM.

For the compound `Cc1cc(O)c2cc3c(O)c(O)ccc3cc2c1`, the TGI is 14.1 µM in experiment [1]; 3.52 µM in experiment [2]; above 100 µM in experiment [3]; 10.8 µM in [4]; above 42.3 µM in [5]; 8.51 µM in experiment [6]. Further, the TGI in experiment [7] turned out to be 5.63 µM; in [8], 10.3 µM; in experiment [9] it was 2.32 µM; in experiment [10] it was 5.75 µM; in [11], 19.3 µM.

Turning to `Cc1ccc(NC(=O)CC(=O)n2nc(-c3ccccc3)c(N=Nc3ccccc3C(=O)O)c2-c2ccccc2)cc1`, the TGI in experiment [1], in experiment [2], in experiment [3], in [4], in [5] and in [6] was above 100 µM each time. Also, the TGI in [7], in experiment [8], in [9] and in experiment [10] was above 100 µM in each case.

Take `COc1cccc2c1C(=O)c1c(O)c3c(c(O)c1C2=O)C[C@@](O)(C(C)=O)C[C@@H]3OC1CC(N(C)C)C(O)C(C)O1` (stereo partly drawn): the GI50 in experiment [1] is 0.0487 µM and < 0.0151 µM; in [3], 0.0396 µM; in [4], 0.0188 µM and 0.0254 µM; in [5] it was 0.00387 µM; in [6], below 0.0191 µM; in [7] it was 0.00108 µM. For the same compound, the GI50 in [8] is 0.117 µM and < 0.0167 µM; in experiment [9], 0.0171 µM and 0.0131 µM; in experiment [10], 0.00495 µM. Moreover, the TGI in [11] was 0.00144 µM.

Consider `O=CN(O)CC(=O)O.[Ni]`, for which the TGI in experiment [1], in experiment [2], in experiment [3], in [4], in [5] and in experiment [6] was above 100 µM each time. Further, the TGI in experiment [7], in experiment [8], in [9], in [10] and in [11] was above 100 µM throughout.

The record behind these values is PubChem BioAssay (NCI).
